# Laboratory results from patent US20210322382A1, “METHODS AND COMPOSITIONS FOR IMPROVED TREATMENT OF SINUS DISEASE” (Veloce BioPharma LLC, priority 2020, published 2021).
# Assays:
# [1] = Stability of PVP-I solutions, USP method; assay type: physicochemical; conditions: aprotic DMSO solvent system, long periods of time
# Source text: It is known that PVP-I aqueous solutions are difficult to stabilize at low concentrations over a long time. At concentrations less than about 0.7% PVP-I (w/w, aqueous), PVP-I aqueous solutions rapidly decay to yield complex mixtures of iodinated and iodine-free constituents. […] It is of additional novelty that even in the hydrated DMSO solutions prepared from aqueous PVP-I, increased stability is observed for the PVP-I component.
# [2] = aqueous solution; stated as known; cited from earlier work
# [3] = stated as known drawback of PVP-I; cited from earlier work
substance,measurement,setting,value
povidone-iodine [PVP-I],lowest PVP-I concentration prepared and maintained as stable composition,[1],0.1%
same,PVP-I concentration below which aqueous solutions rapidly decay,[2],"less than 0.7 % (w/w, aqueous)"
same,PVP-I concentration above which toxic to the sinuses,[3],above 2.2 % w/w
